Here are results for 17 compounds from patent US20230135877A1, “COMPOSITIONS AND METHODS FOR TREATING AND PREVENTING LUNG DISEASE” (Arizona Board of Regents on Behalf of the University of …, priority 2020, published 2023).

For one data set, the system named is eosinophils. Kind of data set: Eosinophil cytotoxicity by real-time impedance tracing (xCELLigence RTCA). Format: cell-based, IL-5 transgenic mice. The settings on record: for cytotoxic effect on eosinophils as measured by AUC: 3 μg/ml; for Average magnitude of largest AUC: AUC of normalized cell index, negative AUC = cell death; for average AUC (decrease in cell index): 30 μg/ml; for normalized cell index tracings over time (peptide activity): after 24 hours. The source says:
IL-5 transgenic mice were euthanized and blood collected by cardiac puncture through the left ventricle. Red blood cells (RBCs) were lysed using a red blood cell lysis solution (Miltenyi Biotec, Auburn CA). Eosinophils were isolated by negative selection using biotin-conjugated antibodies (CD45R, Thy 1.2, F4/80) and magnetic beads, as previously described (see, Dy, A. B. C., et al., 2019 J Immunol 203: 1122-1130; Ledford, J. G., et al., 2012 PLoS One 7: e32436). Purity of each preparation was verified using standard morphometric analysis of cytocentrifuged slides stained with Easy III™ rapid differential staining kit (Azer Scientific, Morgantown Pa.) to be greater than 95%.
High throughput real-time monitoring of eosinophil cell death was assessed by measuring electrical impedance using the xCELLigence Real-Time Cell Analyzer (ACEA Biosciences, San Diego Calif.) as previously described (see, Dy, A. B. C., et al., 2019 J Immunol 203: 1122-1130; Flynn, A. N., et al., FASEB J 27: 1498-1510; Zeng, C., et al., Environ Res 164: 452-458). Using 96-well gold electrode coated plates (E-plates, ACEA Biosciences) incubated at 37° C. and 5% CO2, an initial background reading was obtained with media only. In a total volume of […] were seeded at 1×10^6 cells/well and allowed to settle for ˜5 hours. Test compounds were added at various concentrations (1, 3, 10 and 30 μg/ml) and changes in electrical impedance were measured over time. Impedance measurements were calculated and presented as normalized cell index (see, Flynn, A. N., et al., FASEB J 27: 1498-1510; Zeng, C., et al., Environ Res 164: 452-458), where a decrease in cell index corresponds to an increase in eosinophil cytotoxicity. Impedance tracings over time were derived from averages of 3-4 technical replicates. To quantify and compare cytotoxicity, the area under the curve (AUC) was calculated using cell index values. Half maximal effective concentration (EC50) values were generated using equivalent molar concentrations and their corresponding dose-response curves for each peptidomimetic.

The subject of the next data set is mouse model of asthma. Kind of data set: HDM experimental allergen challenge, in vivo mouse model of asthma. On the set-up: species or system mice. The settings on record: pre-clinical mouse model of asthma; preliminary data. An excerpt: FIG. 1A-C. Evaluation of SP-A-derived 10-mer native peptide in an in vivo mouse model of asthma. A) Schematic of HDM experimental allergen challenge. B) Newtonian resistance
(Rn) during methacholine challenge of wild-type mice 6 days after terminal HDM challenge. C) Total eosinophil counts in BAL (left panel) and mucin production (right panel) by PAS scoring. Unpaired t-test, *p<0.05, **p<0.01.

[1] abbreviates: Table 3 summary of lead peptidomimetics, eosinophils, RTCA, read-out: EC50.

pEC50: −log10 of the molar value. Entries after “also recorded” stand apart in the source; their conditions may differ. Like-named read-outs stand apart in the source and are kept apart here. Where a SMILES comes first, the peptide text is derived from it. Bridges are numbered along the chain shown (N, C = ends). Roman numbers before positions name the chains, in order. Where no end group is shown, it is not given here. [ ]: non-standard residue; d: D form. Nle = CCCC[C@H](N)C(=O)O

As to `CSCC[C@H](NC(=O)[C@H](CCC(=O)O)NC(=O)[C@@H](NC(=O)[C@H](CSSC[C@H](NC(=O)[C@H](CCC(N)=O)NC(=O)[C@H](CCC(=O)O)NC(=O)[C@H](CCCCN)NC(C)=O)C(=O)N[C@H](C(=O)N[C@@H](CCC(=O)O)C(=O)N[C@@H](CCSC)C(=O)N[C@@H](Cc1ccc(O)cc1)C(=O)N[C@H](C(=O)N[C@@H](CC(=O)O)C(N)=O)[C@@H](C)O)C(C)C)NC(=O)[C@H](CCC(N)=O)NC(=O)[C@H](CCC(=O)O)NC(=O)[C@H](CCCCN)NC(C)=O)C(C)C)C(=O)N[C@@H](Cc1ccc(O)cc1)C(=O)N[C@H](C(=O)N[C@@H](CC(=O)O)C(N)=O)[C@@H](C)O` [Peptidomimetic 868, (Ac-KEQCVEMYTD-NH2)2] (I: Ac-KEQCVEMYTD-NH2 / II: Ac-KEQCVEMYTD-NH2; disulfide I:4-II:4), the “cytotoxic effect on eosinophils as measured by AUC” value in the data set with eosinophils is “most robust cytotoxic effect; also recorded: most comparable response to full-length SP-A”. Also, in the data set on eosinophils (eosinophils, RTCA), the “Average magnitude of largest AUC” value is on record as −9.21 and the “Concentration at which average AUC is largest” value (“Concentration” for short) amounted to 1.17 µM. Further, the pEC50 in the data set with eosinophils (setting [1]) is 4.96.
The compound `CCCC[C@H](NC(=O)[C@H](CCC(=O)O)NC(=O)[C@@H](NC(=O)[C@H](CS)NC(=O)[C@H](CCC(N)=O)NC(=O)[C@H](CCC(=O)O)NC(=O)[C@H](CCCCN)NC(C)=O)C(C)C)C(=O)N[C@@H](Cc1ccc(O)cc1)C(=O)N[C@H](C(=O)N[C@@H](CC(=O)O)C(N)=O)[C@@H](C)O` [Peptidomimetic 882, Ac-KEQCVE-Nle-YTD-NH2] (Ac-KEQCVE[Nle]YTD-NH2) gave a pEC50 in the data set with eosinophils of 5.52.
The same measure, in the same setting: as for `CCCC[C@H](NC(=O)[C@H](CCC(=O)O)NC(=O)[C@@H](NC(=O)[C@H](C)NC(=O)[C@H](CCC(N)=O)NC(=O)[C@H](CCC(=O)O)NC(=O)[C@H](CCCCN)NC(=O)CNC(=O)[C@H](Cc1c[nH]c2ccccc12)NC(C)=O)C(C)C)C(=O)N[C@@H](Cc1ccc(O)cc1)C(=O)N[C@H](C(=O)N[C@@H](CC(=O)O)C(N)=O)[C@@H](C)O` [Peptidomimetic 891, Ac-WGKEQAVE-Nle-YTD-NH2] (Ac-WGKEQAVE[Nle]YTD-NH2), the figure is 5.99.
For the compound `CCCC[C@H](NC(=O)[C@H](CCC(=O)O)NC(=O)[C@@H](NC(=O)[C@H](CS)NC(=O)[C@H](CCC(N)=O)NC(=O)[C@H](CCC(=O)O)NC(=O)[C@H](CCCCN)NC(=O)CNC(=O)[C@H](Cc1c[nH]c2ccccc12)NC(C)=O)C(C)C)C(=O)N[C@@H](Cc1ccc(O)cc1)C(=O)N[C@H](C(=O)N[C@@H](CC(=O)O)C(N)=O)[C@@H](C)O` [Peptidomimetic 892, Ac-WGKEQCVE-Nle-YTD-NH2] (Ac-WGKEQCVE[Nle]YTD-NH2), the pEC50 with eosinophils was 8.10. For the same compound, in the data set on eosinophils (eosinophils, RTCA), the “Average magnitude of largest AUC” value is given as −1.07; the “Concentration” value was found to be 0.10 µM; the “magnitude of the calculated AUCs compared with full-length SP-A, 10-mer, 20-mer and several peptidomimetics” value is given as “much smaller”.
In the data set with eosinophils, `CCCC[C@H](NC(=O)[C@H](CCC(=O)O)NC(=O)[C@@H](NC(=O)[C@H](CS)NC(=O)[C@H](CCC(N)=O)NC(=O)[C@H](CCC(=O)O)NC(=O)[C@H](CCCCN)NC(=O)CNC(=O)[C@H](CCCNC(=N)N)NC(C)=O)C(C)C)C(=O)N[C@@H](Cc1ccc(O)cc1)C(=O)N[C@H](C(=O)N[C@@H](CC(=O)O)C(N)=O)[C@@H](C)O` [Peptidomimetic 893, Ac-RGKEQCVE-Nle-YTD-NH2] (Ac-RGKEQCVE[Nle]YTD-NH2) showed a pEC50 of 7.42.
As to `CCCC[C@H](NC(=O)[C@H](CCC(=O)O)NC(=O)[C@@H](NC(=O)[C@H](CS)NC(=O)[C@H](CCC(N)=O)NC(=O)[C@H](CCC(=O)O)NC(=O)[C@H](CCCCN)NC(=O)CNC(=O)[C@@H](Cc1c[nH]c2ccccc12)NC(C)=O)C(C)C)C(=O)N[C@@H](Cc1ccc(O)cc1)C(=O)N[C@H](C(=O)N[C@@H](CC(=O)O)C(N)=O)[C@@H](C)O` [Peptidomimetic 894, Ac-wGKEQCVE-Nle-YTD-NH2] (Ac-[dW]GKEQCVE[Nle]YTD-NH2), in the data set on eosinophils, the pEC50 is 7.92. Moreover, in the data set with eosinophils (eosinophils, RTCA), the “Average magnitude of largest AUC” value is −1.63; the “Concentration” value was determined as 0.01 µM; the “magnitude of the calculated AUCs compared with full-length SP-A, 10-mer, 20-mer and several peptidomimetics” value was “much smaller”.
In the case of “Ac-GDFRYSDGTPVNYTNWYRGE-NH2 [Peptidomimetic 889]”, the pEC50 with eosinophils is 5.75.
Same read-out and setting: as for “Ac-KEQAVEMYTD-NH2 [Peptidomimetic 884, Ac-KEQAVEMYTD-NH2]”, the figure is 4.97.
“Ac-KEQCVEMYTD (N-terminus assumed) [10-mer peptide, KEQCVEMYTD, reference compound]” gave a pEC50 in the data set with eosinophils of 4.80. Further, in the data set with eosinophils (eosinophils, RTCA), the “average AUC (decrease in cell index)” value is on record as -2.62, the “Average magnitude of largest AUC” value is −2.62, the “Concentration” value was 24.00 µM and the “normalized cell index tracings over time (peptide activity)” value is “decline in peptide activity after 24 hours”. Also, the pEC50 with eosinophils (setting [1]) is 4.80. In addition, in the data set on mouse model of asthma, the airway hyperresponsiveness result was “reduce”, the airway mucus production entry is on record as “reduce” and the eosinophilia entry was “reduce”.
As to “Ac-KEQCVEMYTD-NH2 [Peptidomimetic 856, Ac-KEQCVEMYTD-NH2]”, the pEC50 in the data set on eosinophils was 5.09.
Compound “Ac-KEQCVEMYTD-OH [Peptidomimetic 870, Ac-KEQCVEMYTD-acid]” showed a pEC50 in the data set with eosinophils of 4.97.
With “Ac-KEQSVEMYTD-NH2 [Peptidomimetic 883, Ac-KEQSVEMYTD-NH2]”, the pEC50 in the data set with eosinophils is 5.03.
“Ac-SDGTPVNYTNWYRGEPAGRGKEQ-NH2 [Peptidomimetic 888]”: the pEC50 in the data set with eosinophils is 7.46.
As for “Ac-WGKEQCVEMYTD-NH2 [Peptidomimetic 867, Ac-WGKEQCVEMYTD-NH2]”, the “cytotoxic effect on eosinophils as measured by AUC” value in the data set with eosinophils was “most robust cytotoxic effect; also recorded: most comparable response to full-length SP-A”. In addition, in the data set with eosinophils (eosinophils, RTCA), the “Average magnitude of largest AUC” value was −9.06 and the “Concentration” value was found to be 1.96 µM. The pEC50 with eosinophils (setting [1]) was 6.02.
Take “Full-length SP-A: Full-length surfactant protein A; served as the positive control for eosinophil cell death”: in the data set on eosinophils (eosinophils, RTCA), the “average AUC (decrease in cell index)” value is recorded as −13.89, the “Average magnitude of largest AUC” value was −13.89, the “Concentration” value was found to be 0.86 µM and the eosinophil cell death entry was “induced eosinophil cell death in a dose-dependent manner”. The pEC50 with eosinophils (eosinophils, RTCA, concentration range 1, 3, 10 and 30 μg/ml, read-out: EC50 (half maximal effective concentration, based on AUC at each dose)) was 6.80.
As to “H-KEQCVEMYTD-OH [Peptidomimetic 871, H-KEQCVEMYTD-acid]”, the pEC50 in the data set with eosinophils is 5.60.
“PAGRGKEQCVEMYTDGQWND [20-mer peptide, reference compound]” showed a pEC50 in the data set with eosinophils of 4.83. In the data set with eosinophils (eosinophils, RTCA), the “average AUC (decrease in cell index)” value was -3.50, the “Average magnitude of largest AUC” value is given as −3.50, the “Concentration” value amounted to 13.10 µM and the “normalized cell index tracings over time (peptide activity)” value is “decline in peptide activity after 24 hours”. For the same compound, the pEC50 in the data set with eosinophils (setting [1]) is 4.83. In the data set on mouse model of asthma, the airway hyperresponsiveness entry was “reduce”, the airway mucus production entry is “reduce” and the eosinophilia entry was “reduce”.
